Source: patent US10183952B2, “Thienopyrroles as histone demethylase inhibitors” (ISTITUTO EUROPEO DI ONCOLOGIA S.R.L., priority 2014, dated 2019)
pIC50: −log10 of the molar value. Counter-ions that a name gives are not always drawn.

Experiments:
[1] = target: human recombinant KDM1A/CoREST protein (Homo sapiens, UniProt O60341); experiment: Assay of enzyme inhibition of KDM1A (LSD1), TR-FRET
Description: The intensity of the light emission is proportional to the level of biotinylated reaction product. The complex of human recombinant KDM1A/CoREST protein was produced in E. coli as separate proteins and co-purified as previously described.
Demethylase reaction was started by the addition of 50 nM histone H3K4 monomethylated.
The resulting mixture was incubated in the dark for 1 h at RT.

[2] = test system: human leukemia MV4-11 cells; experiment: Cell growth, CellTiter-Fluor Cell Viability Assay, MV4-11; type: cell-based; settings: 48 h incubation, read-out: IC50 against human leukemia MV4-11 cells
Description: (§1) The CellTiter-Fluor™ Cell Viability Assay measures the conserved and constitutive protease activity within live cells and therefore acts as a marker for cell viability.
(§2) CellTiter-Flor® (Promega) is as a nonlytic, single-reagent-addition fluorescence assay that measures the relative number of living cells in a culture population after experimental manipulation. The CellTiter-Fluor™ Cell Viability Assay measures the conserved and constitutive protease activity within live cells and therefore acts as a marker for cell viability.
(§3) Human leukemia MV4-11 cells, (obtained from the Deutsche Sammlung von Mikroorganismen und Zellkulturen, ACC 102) or NB4 cells, (obtained from the Deutsche Sammlung von Mikroorganismen und Zellkulturen) in exponential growth, were incubated for 48 h with different concentrations of the inhibitors. After 48 h a volume of CellTiter-Fluor® Reagent equal to one fifth of volume of cell culture medium was added. The content was mixed and incubates for at least 90 min at 37° C. degree to obtain a stable signal. The fluorescence was recorded using an excitation wavelength of 360 nm and an emission at 535 nm. The IC50 was calculated using GraphPad Software.

human leukemia NB4 cells = experiment: Cell growth, CellTiter-Fluor Cell Viability Assay, NB4; type: cell-based; settings: NB-4, 48 h incubation, read-out: IC50 against human leukemia NB4 cells
Description: as §1, §2, §3

Structure (SMILES) | pIC50 [1] | pIC50 [2] | pIC50 (human leukemia NB4 cells)
CCN1CCC(Oc2ccc(OCc3ccccc3NC(=O)c3cc4sccc4n3C)cc2)CC1 [Example 3, N-[2-[[4-[(1-ethyl-4-piperidyl)oxy]phenoxy]methyl]phenyl]-4-methyl-thieno[3,2-b]pyrrole-5-carboxamide] | > 5.00 | > 5.00 | > 4.70
Cn1c(C(=O)Nc2ccccc2COc2ccc(OC[C@@H]3CCNC3)cc2)cc2sccc21 [Example 4, 4-methyl-N-[2-[[4-[[(3R)-pyrrolidin-3-yl]methoxy]phenoxy]methyl]phenyl]thieno[3,2-b]pyrrole-5-carboxamide] | > 5.00 | > 5.00 | > 4.70
Cn1c(C(=O)Nc2ccccc2COc2ccc(OCC3CCNC3)cc2)cc2sccc21 (centres unmarked) [Example 5, 4-methyl-N-[2-[[4-(pyrrolidin-3-ylmethoxy)phenoxy]methyl]phenyl]thieno[3,2-b]pyrrole-5-carboxamide] | > 5.00 | > 5.00 | > 4.70
CCn1c(C(=O)Nc2cccc(COc3ccc(OC4CCNCC4)cc3)c2)cc2sccc21 [Example 6, 4-ethyl-N-[3-[[4-(4-piperidyloxy)phenoxy]methyl]phenyl]thieno[3,2-b]pyrrole-5-carboxamide] | > 5.00 | > 5.00 | > 4.70
Cn1c(C(=O)Nc2cccc(COc3cccc(OC4CCNCC4)c3)c2)cc2sccc21 [Example 58, 4-Methyl-N-[3-[[3-(4-piperidyloxy)phenoxy]methyl]phenyl]thieno[3,2-b]pyrrole-5-carboxamide hydrochloride] | > 5.00 | – | –
Cn1c(C(=O)Nc2ccccc2COc2cccc(OC3CCNCC3)c2)cc2ccsc21 [Example 64, 6-Methyl-N-[2-[[3-(4-piperidyloxy)phenoxy]methyl]phenyl]thieno[2,3-b]pyrrole-5-carboxamide] | > 5.00 | – | –
CCn1c(C(=O)Nc2ccccc2COc2cccc(OC3CCNCC3)c2)cc2ccsc21 [Example 65, 6-Ethyl-N-[2-[[3-(4-piperidyloxy)phenoxy]methyl]phenyl]thieno[2,3-b]pyrrole-5-carboxamide] | > 5.00 | – | –

Next, values leading:

pIC50 [1] | pIC50 [2] | pIC50 (human leukemia NB4 cells) | Structure (SMILES)
> 5.00 | > 5.00 | > 4.70 | Cn1c(C(=O)Nc2ccccc2COc2ccc(OC3CCNCC3)cc2)cc2sccc21 [Example 1, 4-Methyl-N-[2-[[4-(4-piperidyloxy)phenoxy]methyl]phenyl]thieno[3,2-b]pyrrole-5-carboxamide]
> 5.00 | > 5.00 | > 4.70 | Cn1c(C(=O)Nc2ccccc2COc2ccc(OCC3CCNCC3)cc2)cc2sccc21 [Example 2, 4-methyl-N-[2-[[4-(4-piperidylmethoxy)phenoxy]methyl]phenyl]thieno-[3,2-b]pyrrole-5-carboxamide]
> 5.00 | – | – | Cn1c(C(=O)Nc2cccc(COc3ccc(CNC(=N)N)cc3)c2)cc2sccc21 [Example 59, N-[3-[[4-(Guanidinomethyl)phenoxy]methyl]phenyl]-4-methyl-thieno[3,2-b]pyrrole-5-carboxamide; trifluoroacetic acid]
> 5.00 | – | – | Cn1c(C(=O)Nc2ccccc2COc2ccc(CNC(=N)N)cc2)cc2sccc21 [Example 60, N-[2-[[4-(Guanidinomethyl)phenoxy]methyl]phenyl]-4-methyl-thieno[3,2-b]pyrrole-5-carboxamide; trifluoroacetic acid]
> 5.00 | – | – | CCn1c(C(=O)Nc2ccccc2COc2ccc(OC3CCNCC3)cc2)cc2ccsc21 [Example 66, 6-Ethyl-N-[2-[[4-(4-piperidyloxy)phenoxy]methyl]phenyl]thieno[2,3-b]pyrrole-5-carboxamide hydrochloride]
> 5.00 | – | – | Cn1c(C(=O)Nc2ccccc2COc2ccc(OC3CCNCC3)cc2)cc2ccsc21 [Example 67, 6-Methyl-N-[2-[[4-(4-piperidyloxy)phenoxy]methyl]phenyl]thieno[2,3-b]pyrrole-5-carboxamide]
> 5.00 | – | – | Cn1c(C(=O)Nc2ccccc2COc2ccc(OCC3CCNC3)cc2)cc2ccsc21 (centres unmarked) [Example 68, 6-Methyl-N-[2-[[4-(pyrrolidin-3-ylmethoxy)phenoxy]methyl]phenyl]thieno[2,3-b]pyrrole-5-carboxamide hydrochloride]
